Data reported in ChEMBL document CHEMBL5096234, “Discovery, Optimization, and Evaluation of Selective CDK4/6 Inhibitors for the Treatment of Breast Cancer” (J Med Chem, 2022).
In brackets after ≈: the same amount, converted by molar mass. Activity calls are given as the source filed them. The calls are words filed in the database; no cut-off is given here.

Assays:
[1] = Cmax in Sprague-Dawley rat 1 mg/kg, iv by LC/MS/MS analysis; type: ADME, organism-based; design: dose 1 mg/kg, route iv; conditions: in vivo
[2] = biological target: T1, Retinoblastoma-associated protein (Homo sapiens) (UniProt P06400); experiment: Inhibition of RB phosphorylation in human T47D cells at 1 to 4 uM incubated for 24 hrs by Western blot analysis; type: cell-based; conditions: dose 1-4 µM
T1 sequence (whole entry): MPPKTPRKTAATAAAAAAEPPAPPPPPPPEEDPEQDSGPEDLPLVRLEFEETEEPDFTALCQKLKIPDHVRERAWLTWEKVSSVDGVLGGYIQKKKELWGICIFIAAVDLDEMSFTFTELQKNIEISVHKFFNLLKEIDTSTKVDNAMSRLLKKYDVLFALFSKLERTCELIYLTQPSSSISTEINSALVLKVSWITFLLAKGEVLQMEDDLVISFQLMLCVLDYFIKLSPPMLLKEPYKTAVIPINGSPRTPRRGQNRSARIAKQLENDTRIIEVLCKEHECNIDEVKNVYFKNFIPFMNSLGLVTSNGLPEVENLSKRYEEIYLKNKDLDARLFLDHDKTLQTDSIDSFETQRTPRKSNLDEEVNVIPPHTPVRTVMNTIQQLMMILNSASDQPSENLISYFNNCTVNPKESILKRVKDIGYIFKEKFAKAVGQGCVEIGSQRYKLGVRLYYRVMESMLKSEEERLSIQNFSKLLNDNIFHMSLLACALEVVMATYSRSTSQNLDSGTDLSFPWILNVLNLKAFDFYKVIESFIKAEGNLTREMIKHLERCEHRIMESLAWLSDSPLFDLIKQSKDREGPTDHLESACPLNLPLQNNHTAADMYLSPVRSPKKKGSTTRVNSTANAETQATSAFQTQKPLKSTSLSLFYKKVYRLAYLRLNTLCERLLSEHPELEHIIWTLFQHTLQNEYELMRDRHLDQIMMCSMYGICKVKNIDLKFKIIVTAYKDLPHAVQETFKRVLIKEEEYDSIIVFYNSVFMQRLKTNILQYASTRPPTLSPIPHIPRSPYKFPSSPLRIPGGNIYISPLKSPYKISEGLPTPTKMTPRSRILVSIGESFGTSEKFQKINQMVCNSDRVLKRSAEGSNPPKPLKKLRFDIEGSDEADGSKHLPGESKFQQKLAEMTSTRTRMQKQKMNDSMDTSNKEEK

[3] = system: T47D; experiment: Antiproliferative activity against human T47D cells assessed as cell growth inhibition incubated for 72 hrs by CCK-8 assay; type: functional
[4] = system: T47D; experiment: Inhibition of clone formation in human T47D cells at 1 to 8 uM by crystal voilet staining based analysis; type: functional, cell-based; conditions: dose 1-8 µM, time 2.0 weeks
[5] = system: T47D; experiment: Downregulation c-MYC level in human T47D cells incubated for 24 hrs by Western blot analysis; type: functional, cell-based; conditions: dose 1-4 µM, DDE = dose-dependent effect
[6] = Half life in Sprague-Dawley rat 1 mg/kg, iv by LC/MS/MS analysis; type: ADME, organism-based; conditions: in vivo
[7] = Acute toxicity in ICR mouse assessed as change in heart kidney at 1000 to 5000 mg/kg, po administered as single dose and measured every 2 days for 14 days; type: organism-based; conditions: in vivo, 336 h, dose 1000-5000 mg/kg, time 14 day
[8] = system: T47D; experiment: Induction of cell cycle arrest in human T47D cells assessed as accumulation of cells at G1 phase at 1 uM incubated for 24 hrs by propidium iodide staining based flow cytometry analysis (reference value: 69.55 %); type: functional
[9] = biological target: CDK6/cyclin D1 (Homo sapiens, UniProt Q00534); experiment: Inhibition of CDK6/cyclin-D1 (unknown origin) in presence of ATP by time resolved-FRET assay; type: protein-complex assay
Sequence of CDK6/cyclin D1 (P24385 whole entry): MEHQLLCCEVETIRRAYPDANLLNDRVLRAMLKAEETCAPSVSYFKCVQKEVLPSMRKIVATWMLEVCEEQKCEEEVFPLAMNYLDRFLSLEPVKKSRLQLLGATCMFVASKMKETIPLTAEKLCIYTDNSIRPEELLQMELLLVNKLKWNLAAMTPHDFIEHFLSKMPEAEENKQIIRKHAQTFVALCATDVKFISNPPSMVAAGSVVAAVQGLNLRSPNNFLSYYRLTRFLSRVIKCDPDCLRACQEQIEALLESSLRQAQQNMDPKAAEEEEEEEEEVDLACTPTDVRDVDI
Sequence of CDK6/cyclin D1 (Q00534 whole entry): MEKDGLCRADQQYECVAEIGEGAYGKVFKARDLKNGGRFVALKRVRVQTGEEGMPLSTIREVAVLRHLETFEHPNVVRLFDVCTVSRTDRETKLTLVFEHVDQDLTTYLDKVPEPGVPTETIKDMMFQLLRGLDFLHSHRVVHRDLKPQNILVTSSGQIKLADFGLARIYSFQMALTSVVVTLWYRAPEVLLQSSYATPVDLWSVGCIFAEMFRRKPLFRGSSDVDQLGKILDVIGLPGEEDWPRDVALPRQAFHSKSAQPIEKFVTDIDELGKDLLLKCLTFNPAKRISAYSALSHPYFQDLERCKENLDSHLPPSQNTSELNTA

[10] = Toxicity in BALB/c mouse xenografted with human MCF7 cells assessed as increase in body weight at 100 to 150 mg/kg, po administered once daily and measured every 2 days for 23 days; type: organism-based; conditions: in vivo, 552 h, dose 100-150 mg/kg, time 23 day
[11] = system: T47D; experiment: Induction of cell cycle arrest in human T47D cells assessed as accumulation of cells at G1 phase at 4 uM incubated for 24 hrs by propidium iodide staining based flow cytometry analysis (reference value: 69.55 %); type: functional
[12] = […] stability in human liver microsomes assessed as half life preincubated for 10 mins followed by NADPH addition by LC-MS/MS analysis; type: ADME, Microsome
[13] = system: MCF7; experiment: Induction of cell cycle arrest in human MCF7 cells assessed as accumulation of cells at G1 phase at 3 uM incubated for 24 hrs by propidium iodide staining based flow cytometry analysis (reference value: 57.38%); type: functional
[14] = system: MCF7; experiment: Antiproliferative activity against human MCF7 cells assessed as cell growth inhibition incubated for 72 hrs by CCK-8 assay; type: functional
[15] = Thermodynamic solubility of the compound incubated for 24 hrs under shaking condition by LC-MS/MS analysis; type: physicochemical; conditions: read-out: Therm_solubility
[16] = system: ZR-75-1; experiment: Antiproliferative activity against human ZR-75-1 cells assessed as cell growth inhibition incubated for 72 hrs by CCK-8 assay; type: functional
[17] = system: T47D; experiment: Downregulation cyclin D1 level in human T47D cells incubated for 24 hrs by Western blot analysis; type: functional, cell-based; conditions: dose 1-4 µM, DDE = dose-dependent effect
[18] = Acute toxicity in ICR mouse assessed as animal death at 5000 mg/kg, po administered as single dose and measured every 2 days for 14 days; type: organism-based; conditions: in vivo, 336 h, time 14 day
[19] = Acute toxicity in ICR mouse assessed as change in liver weight at 1000 to 5000 mg/kg, po administered as single dose and measured every 2 days for 14 days; type: organism-based; conditions: in vivo, 336 h, dose 1000-5000 mg/kg, time 14 day
[20] = system: T47D; experiment: Antiproliferative activity against human T47D cells assessed as inhibition of cell growth at 1 to 4 uM incubated for 5 days by CCK-8 assay; type: functional, cell-based; conditions: dose 1-4 µM, time 5.0 day
[21] = biological target: CDK4/Cyclin D3 (Homo sapiens, UniProt P11802); experiment: Inhibition of CDK4/cyclin-D3 (unknown origin) in presence of ATP by time resolved-FRET assay; type: protein-complex assay
Sequence of CDK4/Cyclin D3 (P11802 whole entry): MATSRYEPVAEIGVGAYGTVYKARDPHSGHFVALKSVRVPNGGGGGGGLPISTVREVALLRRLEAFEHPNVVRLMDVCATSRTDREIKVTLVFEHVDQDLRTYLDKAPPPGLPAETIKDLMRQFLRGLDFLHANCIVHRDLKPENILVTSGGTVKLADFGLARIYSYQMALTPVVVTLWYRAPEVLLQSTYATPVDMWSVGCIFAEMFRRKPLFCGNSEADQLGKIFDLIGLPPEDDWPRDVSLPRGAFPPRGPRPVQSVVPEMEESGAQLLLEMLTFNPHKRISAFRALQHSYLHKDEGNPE
Sequence of CDK4/Cyclin D3 (P30281 whole entry, further chain): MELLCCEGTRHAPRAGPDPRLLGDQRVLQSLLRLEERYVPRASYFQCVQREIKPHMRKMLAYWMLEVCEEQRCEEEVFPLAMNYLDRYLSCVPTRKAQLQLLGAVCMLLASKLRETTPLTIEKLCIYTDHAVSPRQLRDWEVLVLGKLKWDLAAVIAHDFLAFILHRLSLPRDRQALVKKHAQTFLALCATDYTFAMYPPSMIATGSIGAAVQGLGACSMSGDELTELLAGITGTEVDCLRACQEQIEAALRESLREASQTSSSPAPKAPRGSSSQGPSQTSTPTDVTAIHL

[22] = Acute toxicity in ICR mouse assessed as change in spleen weight at 1000 to 5000 mg/kg, po administered as single dose and measured every 2 days for 14 days; type: organism-based; conditions: in vivo, 336 h, dose 1000-5000 mg/kg, time 14 day
[23] = system: MCF7; experiment: Induction of cell cycle arrest in human MCF7 cells assessed as accumulation of cells at G2 phase at 3 uM incubated for 24 hrs by propidium iodide staining based flow cytometry analysis (reference value: 29.66%); type: functional
[24] = system: MCF7; experiment: Induction of cell cycle arrest in human MCF7 cells assessed as accumulation of cells at G1 phase at 6 uM incubated for 24 hrs by propidium iodide staining based flow cytometry analysis (reference value: 57.38%); type: functional
[25] = Acute toxicity in ICR mouse assessed as heart lesions at 5000 mg/kg, po administered as single dose and measured every 2 days for 14 days by H and E staining based analysis; type: organism-based; conditions: in vivo, 336 h, time 14 day
[26] = Inhibition of CDK1/cyclin B (unknown origin) in presence of ATP by time resolved-FRET assay; design: species or system Homo sapiens
[27] = Acute toxicity in ICR mouse assessed as lung lesions at 5000 mg/kg, po administered as single dose and measured every 2 days for 14 days by H and E staining based analysis; type: organism-based; conditions: in vivo, 336 h, time 14 day

CCN1CCc2cc(-c3nc(Nc4ccc(N5CCNCC5)cn4)ncc3F)ccc2C1=O
Cmax [1]: 291 ng/mL
inhibition [2]: Active
GI50 [3]: 887 nM
inhibition [4]: Active
Activity [5]: Dde
half-life [6]: 2.62 h
Activity [7]: Non-Toxic
Activity [8]: 83.14%
IC50 [9]: 16 nM
Activity [10]: Non-Toxic
Activity [11]: 87.12%
half-life [12]: 1.8 h
Activity [13]: 83.91%
GI50 [14]: 2700 nM
solubility thermodynamic at 24 h [15]: 1020 µg/mL (≈ 2280 µM)
GI50 [16]: 3200 nM
Activity [17]: Dde
Activity [18]: Non-Toxic
Activity [19]: Non-Toxic
inhibition [20]: Active
IC50 [21]: 10 nM
Activity [22]: Non-Toxic
Activity [23]: 11.42%
Activity [24]: 85.27%
Activity [25]: Non-Toxic
IC50 [26]: > 10000 nM
Activity [27]: Non-Toxic
